From patent US11021493B2, “1,4-thiazine dioxide and 1,2,4-thiadiazine dioxide derivatives as beta-secretase inhibitors and methods of use” (AMGEN INC., priority 2016, dated 2021)

Legend:
β-secretase = β-secretase (Rattus norvegicus (Rat), UniProt P56819); assay: In vivo inhibition of β-secretase: Aβ reduction in rat CSF and brain
Protocol: In Vivo Inhibition of β-Secretase
Animals to be used in this experiment can be wild type, transgenic, or gene knockout animals.
A separate group of animals receive 2% hydroxypropyl methylcellulose, 1% Tween80 alone, containing no test compound, and serve as a vehicle-control group. At the end of the test period, animals are sacrificed and brain tissues, plasma or cerebrospinal fluid are collected. […] Homogenates are centrifuged at 355,000 g, 4° C. for 30 minutes. CSF or brain supernatants are then analyzed for the presence of Aβ by specific sandwich ELISA assays based on ECL (Electrochemiluminescence) technology. For example, rat Aβ40 is measured using biotinylated-4G8 (Signet) as a capture antibody and Fab40 (an in-house antibody specific to the C-terminal of Aβ40) as a detection antibody.

BACE1 [1] = target: T1, BACE1 (Homo sapiens (Human), UniProt P56817); assay: In vitro enzymatic BACE1 FRET assay; format: biochemical; details: read-out: BACE1 Enzyme IC50
Target sequence in this assay (P56817 46-501): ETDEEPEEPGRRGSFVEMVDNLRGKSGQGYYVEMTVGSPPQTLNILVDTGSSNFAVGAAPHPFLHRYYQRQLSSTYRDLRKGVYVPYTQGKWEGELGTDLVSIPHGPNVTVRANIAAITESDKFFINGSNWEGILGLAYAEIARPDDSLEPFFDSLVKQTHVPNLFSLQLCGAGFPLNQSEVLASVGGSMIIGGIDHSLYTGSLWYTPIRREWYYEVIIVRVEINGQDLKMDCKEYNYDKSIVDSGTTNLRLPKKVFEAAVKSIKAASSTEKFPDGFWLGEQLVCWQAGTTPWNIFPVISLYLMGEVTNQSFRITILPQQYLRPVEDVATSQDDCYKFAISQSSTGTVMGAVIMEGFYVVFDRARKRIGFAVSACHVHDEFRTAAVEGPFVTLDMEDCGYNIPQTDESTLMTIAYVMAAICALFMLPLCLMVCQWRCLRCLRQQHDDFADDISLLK

human recombinant BACE2 = human recombinant BACE2 (Homo sapiens (Human), UniProt Q9Y5Z0); assay: In vitro enzymatic BACE2 FRET assay; format: biochemical; details: read-out: BACE2 Enzyme IC50
Sequence of human recombinant BACE2 (Q9Y5Z0 63-518): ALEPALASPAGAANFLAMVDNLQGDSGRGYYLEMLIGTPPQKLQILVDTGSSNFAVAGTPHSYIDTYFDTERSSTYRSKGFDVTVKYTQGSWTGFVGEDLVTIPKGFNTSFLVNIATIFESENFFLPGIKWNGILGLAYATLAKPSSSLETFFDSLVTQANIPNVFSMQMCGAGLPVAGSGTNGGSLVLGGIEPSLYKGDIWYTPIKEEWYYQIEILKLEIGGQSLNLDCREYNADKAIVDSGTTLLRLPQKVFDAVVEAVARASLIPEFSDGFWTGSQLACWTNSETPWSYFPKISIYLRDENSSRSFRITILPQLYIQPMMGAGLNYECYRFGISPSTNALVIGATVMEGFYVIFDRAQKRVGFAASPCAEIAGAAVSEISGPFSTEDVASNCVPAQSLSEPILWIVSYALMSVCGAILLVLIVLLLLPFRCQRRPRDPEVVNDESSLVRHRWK

Cathepsin D (CatD) = Cathepsin D (CatD) (Homo sapiens (Human), UniProt P07339); assay: In vitro enzymatic Cathepsin D (CatD) FRET assay; format: biochemical; details: read-out: Cat D Enzyme IC50
Sequence of Cathepsin D (CatD) (P07339 65-412, species assumed): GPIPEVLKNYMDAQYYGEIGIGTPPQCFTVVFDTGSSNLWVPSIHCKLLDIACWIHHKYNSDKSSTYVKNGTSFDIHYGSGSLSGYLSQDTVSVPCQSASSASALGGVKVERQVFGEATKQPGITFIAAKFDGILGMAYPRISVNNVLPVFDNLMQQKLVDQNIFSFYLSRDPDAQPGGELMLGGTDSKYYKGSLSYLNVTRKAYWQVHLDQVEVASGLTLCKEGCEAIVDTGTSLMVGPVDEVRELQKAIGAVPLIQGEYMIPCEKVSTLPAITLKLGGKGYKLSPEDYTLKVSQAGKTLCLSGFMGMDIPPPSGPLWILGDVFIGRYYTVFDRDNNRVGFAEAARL

BACE1 [2] = target: T1, BACE1; assay: In vitro BACE1 cell-based assay (Aβ40 in conditioned medium of cells stably expressing APP, HTRF); details: Aβ40 in conditioned media after 24 h incubation
Target sequence in this assay (P56817 46-501, species assumed): as the sequence (P56817 46-501) above

Sequence of β-secretase (P56819 46-501): as the sequence (P56817 46-501) above, with G82S, V162I, L165I, S180T, V182A, I340V, L393A, Q443H counted along it

SMILES	% Aβ reduction in rat CSF at 10 mpk (β-secretase) [%]	% Aβ reduction in rat brain at 10 mpk (β-secretase) [%]	IC50 (BACE1 [1]) [nM]	IC50 (human recombinant BACE2) [nM]	IC50 (Cathepsin D (CatD)) [µM]	IC50 (BACE1 [2]) [nM]
CC#C[C@H](CC)Oc1cnc(/C(F)=C/c2ccc(F)c([C@]3(C)CS(=O)(=O)C(C)(C)C(N)=N3)c2)cn1 [Example 199, (R)-5-amino-3-(2-fluoro-5-((Z)-2-fluoro-2-(5-((S)-hex-4-yn-3-yloxy)pyrazin-2-yl)vinyl)phenyl)-3,6,6-trimethyl-3,6-dihydro-2H-1,4-thiazine 1,1-dioxide]	43	58	–	–	–	–
C#C[C@H](C)Oc1cnc(/C(F)=C/c2ccc(F)c([C@@]3(C)N=C(N)N(C)S(=O)(=O)C3(C)C)c2)cn1 [Example 186, (R)-3-amino-5-(5-((Z)-2-(5-((S)-but-3-yn-2-yloxy)pyrazin-2-yl)-2-fluorovinyl)-2-fluorophenyl)-2,5,6,6-tetramethyl-5,6-dihydro-2H-1,2,4-thiadiazine 1,1-dioxide]	19	43	5	451	375	24
C#C[C@H](C)Oc1cnc(/C(F)=C/c2ccc(F)c([C@]3(C)CS(=O)(=O)C(C)(C)C(N)=N3)c2)cn1 [Example 160, (R)-5-amino-3-(5-((Z)-2-(5-((S)-but-3-yn-2-yloxy)pyrazin-2-yl)-2-fluorovinyl)-2-fluorophenyl)-3,6,6-trimethyl-3,6-dihydro-2H-1,4-thiazine 1,1-dioxide]	52	34	1	120	207	5
CC1(C)C(N)=N[C@@]2(c3ccc(/C=C(\F)c4ccc(C#N)cn4)cc3F)COC[C@H]2S1(=O)=O [Example 261, 6-((Z)-2-(4-((4aS,7aS)-3-amino-2,2-dimethyl-1,1-dioxido-4a,5,7,7a-tetrahydro-2H-furo[3,4-b][1,4]thiazin-4a-yl)-3-fluorophenyl)-1-fluorovinyl)nicotinonitrile]	69	60	2	12	178	34
CC#CCOc1cnc(/C(F)=C/c2ccc(F)c([C@@]3(C)N=C(N)N(C)S(=O)(=O)C3(C)C)c2)cn1 [Example 185, (R,Z)-3-amino-5-(5-(2-(5-(but-2-yn-1-yloxy)pyrazin-2-yl)-2-fluorovinyl)-2-fluorophenyl)-2,5,6,6-tetramethyl-5,6-dihydro-2H-1,2,4-thiadiazine 1,1-dioxide]	–	–	2	159	259	5
C#CCOc1cnc(/C(F)=C/c2ccc(F)c([C@@]3(C)N=C(N)[C@@]4(CF)CC[C@@H]3S4(=O)=O)c2)cn1 [Example 108, (1R,4R,5S)-2-amino-4-(2-fluoro-5-((Z)-2-fluoro-2-(5-(prop-2-yn-1-yloxy)pyrazin-2-yl)vinyl)phenyl)-1-(fluoromethyl)-4-methyl-8-thia-3-azabicyclo[3.2.1]oct-2-ene 8,8-dioxide]	–	–	3	57	145	6
CCC#C[C@H](C)Oc1cnc(/C(F)=C/c2ccc(F)c([C@]3(C)CS(=O)(=O)C(C)(C)C(N)=N3)c2)cn1 (single isomer, unassigned) [Example 217]	–	–	9	233	26.8	288

Continued by falling IC50 (BACE1 [1]), values first:

% Aβ reduction in rat CSF at 10 mpk (β-secretase) [%]	% Aβ reduction in rat brain at 10 mpk (β-secretase) [%]	IC50 (BACE1 [1]) [nM]	IC50 (human recombinant BACE2) [nM]	IC50 (Cathepsin D (CatD)) [µM]	IC50 (BACE1 [2]) [nM]	SMILES
–	–	84	94	> 4.94	97	CN1C(N)=N[C@](C)(c2cc(/C=C(\F)c3cc(C#N)c(Cl)cn3)ccc2F)CS1(=O)=O [Example 231, (R,Z)-2-(2-(3-(3-amino-2,5-dimethyl-1,1-dioxido-5,6-dihydro-2H-1,2,4-thiadiazin-5-yl)-4-fluorophenyl)-1-fluorovinyl)-5-chloroisonicotinonitrile]
–	–	35	124	> 400	706	C[C@]1(c2cc(/C=C(\F)c3cnc(OCC4CC4)cn3)ccc2F)N=C(N)[C@@]2(CF)CC[C@@H]1S2(=O)=O [Example 118, (1R,4R,5S)-2-amino-4-(5-((Z)-2-(5-(cyclopropylmethoxy)pyrazin-2-yl)-2-fluorovinyl)-2-fluorophenyl)-1-(fluoromethyl)-4-methyl-8-thia-3-azabicyclo[3.2.1]oct-2-ene 8,8-dioxide]
64	70	6	175	129	8	CN1C(N)=N[C@](C)(c2cc(/C=C(\F)c3ccc(C#N)cn3)ccc2F)C2(CC2)S1(=O)=O [Example 127, (R,Z)-6-(2-(3-(6-amino-5,8-dimethyl-4,4-dioxido-4-thia-5,7-diazaspiro[2.5]oct-6-en-8-yl)-4-fluorophenyl)-1-fluorovinyl)nicotinonitrile]
–	–	6	184	41.1	15	CN1C(N)=N[C@](C)(c2cc(/C=C(\F)c3cnc(C#N)cn3)ccc2F)C2(CC2)S1(=O)=O [Example 147, (R,Z)-5-(2-(3-(6-amino-5,8-dimethyl-4,4-dioxido-4-thia-5,7-diazaspiro[2.5]oct-6-en-8-yl)-4-fluorophenyl)-1-fluorovinyl)pyrazine-2-carbonitrile]
68	65	5	129	244	7	C#CCOc1cnc(/C(F)=C/c2cnc(F)c([C@]3(C)CS(=O)(=O)C(C)(C)C(N)=N3)c2)cn1 [Example 205, (R,Z)-5-amino-3-(2-fluoro-5-(2-fluoro-2-(5-(prop-2-yn-1-yloxy)pyrazin-2-yl)vinyl)pyridin-3-yl)-3,6,6-trimethyl-3,6-dihydro-2H-1,4-thiazine 1,1-dioxide]
33	35	4	147	125	18	C#C[C@H](C)Oc1cnc(/C(F)=C/c2ccc(F)c([C@@]3(C)N=C(N)[C@@]4(CF)CC[C@@H]3S4(=O)=O)c2)cn1 [Example 128, (1R,4R,5S)-2-amino-4-(5-((Z)-2-(5-((S)-but-3-yn-2-yloxy)pyrazin-2-yl)-2-fluorovinyl)-2-fluorophenyl)-1-(fluoromethyl)-4-methyl-8-thia-3-azabicyclo[3.2.1]oct-2-ene 8,8-dioxide]
12	16	3	97	151	6	Cc1noc(COc2cnc(/C(F)=C/c3ccc(F)c([C@]4(C)CS(=O)(=O)N(C)C(N)=N4)c3)cn2)n1 [Example 146, (R,Z)-3-amino-5-(2-fluoro-5-(2-fluoro-2-(5-((3-methyl-1,2,4-oxadiazol-5-yl)methoxy)pyrazin-2-yl)vinyl)phenyl)-2,5-dimethyl-5,6-dihydro-2H-1,2,4-thiadiazine 1,1-dioxide]
–	–	2	3	119	4	CN1C(N)=N[C@](C)(c2cc(/C=C(\F)c3ncc(C#N)cc3Cl)ccc2F)CS1(=O)=O [Example 269, (R,Z)-6-(2-(3-(3-amino-2,5-dimethyl-1,1-dioxido-5,6-dihydro-2H-1,2,4-thiadiazin-5-yl)-4-fluorophenyl)-1-fluorovinyl)-5-chloronicotinonitrile]
